From patent US10766940B2, “Brain penetrant amylin receptor based peptides for Alzheimer's disease” (The Governors of the University of Alberta, priority 2016, dated 2020)
Blank lines part the entries; values can stand above or below the compound they belong to. Positions of bridges follow the written chain, without caps; N, C: chain ends. Non-standard residues stand in square brackets, D forms with d. Residues, ends and D or L forms follow the SMILES beside them. No end group written: not given here. Cy5.5 = near-infrared dye, attached as Cy5.5-NHS ester; βAla = NCCC(=O)O

Experiments:
[1] = In vivo and ex vivo NIRF brain imaging after ip injection, wild-type mice; details: for ability to penetrate the blood brain barrier: single ip administration, wild-type mice, NIR fluorescence
Protocol: For in vivo imaging experiments, 6-12 month-old TgCRND8, age-matched wild-type littermate, and heterozygous CTR knockdown mice (50% CTR expression level compared to wild type control mice and presumably with 50% AMY receptor expression level) were used (n=5 in each group). The animals were anesthetized with ketamine ip injection. The fur was shaved from the head and dorsal side of the body to avoid laser scattering caused by hair. […] Wild type mice injected with 200 μl saline were used as a background.
Images were acquired with a Kodak IS2000MM Image station (GE Healthcare Systems/ART Inc.), excitation filter 625/20 band pass, emission filter 700 W band pass, light source was 150 W quartz halogen lamp set to 100 (max). Images were captured with a CCD camera set to F stop=0, FOV=150, FP=0. Exposure time was 2 min per image for NIRF image and 1 s for visible image. To evaluate for fluorescence concentration, the region of interest was drawn around the brain region and analyzed using the Kodak ID 3.6 software and the mean fluorescence intensity was recorded.

[2] = Lipophilicity, shake flask 1-octanol/water partition; format: physicochemical
Protocol: Peptides hydrophobicity was determined using the shake flask method and 1-octanol/water partition coefficient (log Po/w) was determined. […] Peptide concentration (area) in both phases (1-octanol and water) were analyzed by RP-HPLC. The final log Po/w value was calculated by dividing the concentration (C) of the peptide in the two phases as presented by the area under the peak (partition coefficients=C1-octanol/Cwater).

[3] = after ip injection, 2 h, brain homogenate fluorescence vs standard
[4] = Peptide stability in human serum; format: in vitro ADME; details: 37° C.
Protocol: For the serum stability experiments, human serum or liver homogenate (250 μL) were added to DMEM medium (650 μL) in a 1.5 mL Eppendorf tube to mimic a biological system. The temperature was equilibrated at 37±1° C. for 30 minutes before adding 100 μL of the peptide stock solution (1 mM solution in 10% DMSO in sterile water). An aliquot of reaction solution (100 μL) was removed from the sample at different time points 0, 3, 5, 10, 20, and 30 minutes added to pure methanol (300 μL) for precipitation of the serum proteins present in the human serum proteins by centrifugation (10,000 rpm, 5 minutes). The clear supernatant was analyzed by reversed phase HPLC, and the appropriate fractions were collected for identification using MALDI-TOF. Proteolysis kinetics of the peptides was analyzed by following the decrease in the concentration of the intact peptide as a function of time. The t1/2 half-lives of peptides were calculated.

[5] = In vivo competition with unlabeled cAC253, ex vivo brain fluorescence; set-up: species or system mouse; details: 40 μg Cy5.5 cAC253 + 5-fold excess (200 μg) unlabeled cAC253 ip, 2 hr
Protocol: Additionally, a competition in vivo experiment was also carried out. […] Brains were then extracted and scanned ex-vivo for fluorescence concentration. For ex vivo histological study, brains were excised and embedded in OCT, then sliced into 20-μm slices, co-stained with DAPI in mounting medium.

[6] = In vivo pharmacokinetics and bio-distribution of cAC253
Protocol: There were 3 mice in each dose group. After 2 hours the mice were sacrificed to collect their brains which were imaged in a Kodak imager. […] The heart, liver, lung, spleen, intestine, stomach, kidney and brain were excised after perfusion with PBS, and kept in dry ice before Kodak imaging. Fluorescence was quantified, and analyzed as previously.

[7] = molecular target: T1, AMY1 (Homo sapiens, UniProt O60894+P30988); assay: Peptide array-cell binding assay, AMY1 transfected cells; details: membrane screening AMY1-3 subtypes
T1 construct: expressed in transfected cells
T1 sequence (P30988 25-474): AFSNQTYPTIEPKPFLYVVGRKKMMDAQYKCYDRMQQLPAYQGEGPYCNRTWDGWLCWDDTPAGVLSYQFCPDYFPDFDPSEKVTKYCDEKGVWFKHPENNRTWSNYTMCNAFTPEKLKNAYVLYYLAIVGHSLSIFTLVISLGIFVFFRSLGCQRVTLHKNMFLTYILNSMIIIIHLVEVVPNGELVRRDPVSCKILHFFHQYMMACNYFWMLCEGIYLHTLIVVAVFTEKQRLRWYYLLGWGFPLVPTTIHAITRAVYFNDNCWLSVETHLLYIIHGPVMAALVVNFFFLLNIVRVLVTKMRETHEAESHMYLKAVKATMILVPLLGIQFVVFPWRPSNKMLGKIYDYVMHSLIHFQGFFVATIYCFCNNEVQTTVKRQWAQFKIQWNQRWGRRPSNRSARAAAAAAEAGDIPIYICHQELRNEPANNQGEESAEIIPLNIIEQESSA
T1 sequence (O60894 27-148 partner): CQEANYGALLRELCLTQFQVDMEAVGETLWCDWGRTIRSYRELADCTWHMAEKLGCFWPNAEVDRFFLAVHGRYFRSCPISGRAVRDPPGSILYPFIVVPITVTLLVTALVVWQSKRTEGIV

Compound: C[N+]1=C(C=CC=CC=C2N(CCCCCC(=O)ON3C(=O)CCC3=O)c3ccc4ccccc4c3C2(C)C)C(C)(C)c2c1ccc1ccccc21.[Cl-] [Cy5 dye, Cyanine5.5 NHS ester dye, reference compound]
ability to penetrate the blood brain barrier [1]: could not on its own cross the BBB

Compound: CC(C)C[C@@H]1NC(=O)[C@H](N)CSSC[C@H](C(N)=O)NC(=O)[C@H](Cc2ccc(O)cc2)NC(=O)[C@H]([C@@H](C)O)NC(=O)[C@H](CC(N)=O)NC(=O)[C@H](CO)NC(=O)CNC(=O)[C@H]([C@@H](C)O)NC(=O)[C@H](CC(N)=O)NC(=O)[C@H]([C@@H](C)O)NC(=O)[C@H](CCCNC(=N)N)NC(=O)[C@@H]2CCCN2C(=O)[C@H](Cc2ccc(O)cc2)NC(=O)[C@H]([C@@H](C)O)NC(=O)[C@H](CCC(N)=O)NC(=O)[C@H](CC(C)C)NC(=O)[C@H](CCCNC(=N)N)NC(=O)[C@H](Cc2c[nH]cn2)NC(=O)[C@H](CC(C)C)NC(=O)[C@H](CCC(=O)O)NC(=O)[C@H](CCC(N)=O)NC(=O)[C@H](CO)NC(=O)[C@H](CC(C)C)NC(=O)[C@H](CCCNC(=N)N)NC(=O)CNC1=O [cAC253] (H-[dC]LGRLSQELHRLQTYPRTNTGSNTY[dC]-NH2; disulfide 1-26; N-terminus assumed)
logP ([2]; 1-octanol/water shake flask, read-out: log P): -1.05
Partition coefficient ([2]; Table 2, 1-octanol/PBS shake flask): 1.22
brain concentration [3]: 10 to 100 nM
stability in human serum relative to AC253 [4]: seven-fold increase
stability in human serum relative to AC253 ([4]; listed as Cyclic-AC253): 7 times
half-life ([4]; human, serum, RP-HPLC of intact peptide): 7 h
reduction of brain fluorescence signal by excess unlabeled cAC253 [5]: 75%
ex-vivo brain fluorescence signal relative to saline injection ([1]; 2 h post ip injection, 0.1 mmol in 200 μl saline): 2.8 fold
further increase of brain fluorescence level at 6 h ([1]; 6 h post-ip injection, 0.01 mmol): 20%
ability to penetrate the blood brain barrier [1]: penetrate the blood brain barrier
bio-distribution in organs ([6]; 2 h after injecting 20 mg/kg): mainly observed in the eliminating organs such as kidneys, liver and in the injection sites (intestine)

Compound: Cy5-cAC253: cAC253 with extra β-alanine spacer, N-terminally labeled with near-infrared dye Cy5.5-NHS ester ({Cy5.5-βAla}-[dC]LGRLSQELHRLQTYPRTNTGSNTY[dC]-NH2; disulfide 1-26)
half-life of brain fluorescence signal ([6]; mouse, in vivo, ip, 20 mg/kg): 16 h

Other lines, results leading:

clearance from the brain at 6 h ([1]; mouse, in vivo, ip): rapid clearance from the brain
Compound: CC[C@H](C)[C@H](NC(=O)[C@H](C)NC(=O)[C@@H](N)Cc1c[nH]cn1)C(=O)N[C@@H](Cc1ccc(O)cc1)C(=O)N1CCC[C@H]1C(=O)N[C@@H](CCCNC(=N)N)C(=O)N[C@@H](Cc1c[nH]cn1)C(N)=O [T7, HAIYPRH, reference compound]

binding to AMY1 cells on peptide array (fluorescence) [7]: AMY1 specific peptide
Compound: RLQTYPRTNTGS (RLQTYPRTNTGS-NH2) [R10]
